Patent US7879852B2, “Melanocortin receptor agonists” (LG Life Sciences Ltd., priority 2006, dated 2011)

Molecular target: T1, human melanocortin receptor 4 (MC4R) (Homo sapiens, UniProt P32245)
T1 construct: expressed in transfected cells; grown with 200 ug/ml Geneticin
Assay: Luciferase assay
Format: cell-based
Settings: agonistic activity at MC4R (Table 18); patent does not state whether luciferase or cAMP assay
Method: Cell lines expressing human melanocortin receptor 4 (MC4R) were dissociated from tissue culture dishes by rinsing with Ca^++, Mg^++ free DPBS, treated with 1× Trypsin/EDTA solution for 1 min at 37° C., and resuspended with DMRM (GIBCO-BRL) supplemented with 10% FBS. The cells were counted and diluted with DMEM supplemented with 10% FBS and 200 ug/ml of Geneticin to […]. 90 ul of cell suspension was plated onto each well of 96-well black and clear bottom culture plates (Costar). After the incubation for 24 h in the atmosphere of 6% CO2 at 37° C., 10 ul of NDP-MSH and test compounds diluted in DMSO were added to each well. The final DMSO concentration was 1%. After 4 h of incubation in the atmosphere of 6% CO2 at 37° C., 50 ul of Bright-Glo (Promega) was added to each well. Luciferase activity was measured by using L-Max luminometer (Molecular Device). The amount of luciferase activity induced by treatment with NDP-MSH was defined as 100% to obtain the relative efficacy of test compounds. The EC0.5 MSH was defined as the concentration of test compounds that results in half maximal activity of NDP-MSH. The EC50 was defined as the concentration of test compound that results in half maximal activity of its own.

T1 sequence (P32245 whole entry): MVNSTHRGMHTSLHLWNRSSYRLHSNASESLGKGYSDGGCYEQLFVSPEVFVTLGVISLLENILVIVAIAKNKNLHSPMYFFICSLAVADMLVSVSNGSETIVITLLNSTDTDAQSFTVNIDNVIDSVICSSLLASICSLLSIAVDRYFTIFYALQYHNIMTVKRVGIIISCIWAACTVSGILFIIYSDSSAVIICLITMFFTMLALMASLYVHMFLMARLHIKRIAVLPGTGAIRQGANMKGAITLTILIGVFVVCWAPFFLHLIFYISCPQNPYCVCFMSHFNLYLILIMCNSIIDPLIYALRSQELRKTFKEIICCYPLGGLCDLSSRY

Compound	EC50 [nM]
CCN(C)C(=O)[C@@H]1C[C@H](N(C(=O)C(C)(C)CO)C2CCC(C)(C)CC2)CN1C(=O)[C@@H]1CN(C(C)(C)C)C[C@H]1c1ccc(Cl)cc1 [Example A4, (4S)-1-{[(3S,4R)-1-tert-butyl-4-(4-chlorophenyl)pyrrolidine-3-yl]carbonyl}-4-[(4,4-dimethylcyclohexyl)(3-hydroxy-2,2-dimethylpropanoyl)amino]-N-ethyl-N-methyl-L-prolineamide]	3
(4S)-1-[(3S,4R)-1-tert-butyl-4-(4-chlorophenyl)pyrrolidine-3-yl]carbonyl)-4-{(4,4-dimethylcyclohexyl)[(2S)-tetrahydrofuran-2-ylcarbonyl]amino}-N,N-ethylmethyl-L-prolineamide [Example A2]	16
S-(3-{[(3S,5S)-1-{[(3S,4R)-1-tert-butyl-4-(2,4-difluorophenyl)pyrrolidine-3-yl]carbonyl}-5-{[ethyl(methyl)amino]carbonyl}pyrrolidine-3-yl](4,4-dimethylcyclohexyl)amino}-2,2-dimethyl-3-oxopropyl)ethanethioate [Example C13]	40
CC1CCC(N(C(=O)C2=CCOC2)C2CCN(C(=O)C3CNCC3c3ccc(Cl)cc3)C2)CC1 (stereo not drawn) [Example E1-23]	21
CC1CCC(N(C(=O)C(C)(C)C)C2CC(C(N)=S)N(C(=O)C3CN(C(C)(C)C)CC3c3ccc(F)cc3F)C2)CC1 (stereo not drawn) [Example B28]	14
CC1(C)CCC(N(C(=O)C(C)(C)C)[C@H]2CCN(C(=O)[C@@H]3CN(C(C)(C)C)C[C@H]3c3ccc(Cl)cc3)C2)CC1 [Example A9, N-[(3S,4R)-1-{[(3S,4R)-1-T-butyl-4-(4-chlorophenyl)pyrrolidine-3-yl]carbonyl}pyrrolidine-3-yl]-N-(4,4-dimethylcyclohexyl)-2,2-dimethylpropaneamide]	45
CC(=O)C(C)(C)C(=O)N(C1CCC(C)(C)CC1)[C@H]1CCN(C(=O)[C@@H]2CN(C(C)(C)C)C[C@H]2c2ccc(Cl)cc2)C1 [Example C5, N-[(3S)-1-{[(3S,4R)-1-tertbutyl-4-(4-chlorophenyl)pyrrolidine-3-yl]carbonyl}pyrrolidine-3-yl]-N-(4,4-dimethylcyclohexyl)-2,2-dimethyl-3-oxobutaneamide]	6
CC1(C)CCC(N(C(=O)C(C)(C)CO)[C@H]2CCN(C(=O)[C@@H]3CN(C(N)=O)C[C@H]3c3ccc(Cl)cc3)C2)CC1 [Example E2-2]	7
CN(C)C(=O)[C@@H]1C[C@H](N(C(=O)C(C)(C)C)C2CCC(F)(F)CC2)CN1C(=O)[C@@H]1CN(C(C)(C)C)C[C@H]1c1ccc(Cl)cc1 [Example A5, (4S)-1-{[(3S,4R)-1-tert-butyl-4-(4-chlorophenyl)pyrrolidine-3-yl]carbonyl}-4-[(4,4-difluorocyclohexyl)(2,2-dimethylpropanoyl)amino]-N,N-dimethyl-L-prolineamide]	33
CC1CCC(N(C(=O)c2ccoc2)C2CCN(C(=O)C3CNCC3c3ccc(Cl)cc3)C2)CC1 (stereo not drawn) [Example E1-14]	23
CCNC(=O)[C@@H]1C[C@H](N(C(=O)[C@@H]2CCCO2)C2CCC(C)(C)CC2)CN1C(=O)[C@@H]1CN(C(C)(C)C)C[C@H]1c1ccc(Cl)cc1 [Example A3, (4S)-1-{[(3S,4R)-1-tert-butyl-4-(4-chlorophenyl)pyrrolidine-3-yl]carbonyl}-4-{(4,4-dimethylcyclohexyl)[(2S)-tetrahydrofuran-2-ylcarbonyl]amino}-N-ethyl-L-prolineamide]	12

More lines, now with the values ahead:

EC50 [nM]	Compound
4	CCNC(=N)N1C[C@@H](C(=O)N2CC[C@H](N(C(=O)C(C)C)[C@H]3CC[C@@H](C)CC3)C2)[C@H](c2ccc(Cl)cc2)C1 [Example E10, N-[(3S)-1-({(3S,4R)-4-(4-chlorophenyl)-1-[(ethylamino)(imino)methyl]pyrrolidine-3-yl}carbonyl)pyrrolidine-3-yl]2-methyl-N-(cis-4-methylcyclohexyl)propaneamide]
66	CCN(C)C(=O)[C@@H]1C[C@H](N(C(=O)C(C)(C)CS)C2CCC(C)(C)CC2)CN1C(=O)[C@@H]1CN(C(C)(C)C)C[C@H]1c1ccc(F)cc1F [Example C14, (4S)-1-{[(3S,4R)-1-tert-butyl-4-(2,4-difluorophenyl)pyrrolidine-3-yl]carbonyl}-4-[(4,4-dimethylcyclohexyl)(3-mercapto-2,2-dimethylpropanoyl)amino]-N-ethyl-N-methyl-L-prolineamide]
13	CN(C)C(=O)[C@@H]1C[C@H](N(C(=O)C(C)(C)C)C2CCC(C)(C)CC2)CN1C(=O)[C@@H]1CN(C(C)(C)C)C[C@H]1c1ccc(F)cc1F [Example A1, (4S)-1-{[(3S,4R)-1-tert-butyl-4-(2,4-difluorophenyl)pyrrolidine-3-yl]carbonyl}-4-[(4,4-dimethylcyclohexyl)(2,2-dimethylpropanoyl)amino]-N,N-dimethyl-L-prolineamide]
69	CC1(C)CCC(N(C(=O)C(C)(C)C)[C@H]2C[C@@H](C(=O)Nc3ccccc3)N(C(=O)[C@@H]3CN(C(C)(C)C)C[C@H]3c3ccc(Cl)cc3)C2)CC1 [Example A99]
5	CCN(C)C(=O)[C@@H]1C[C@H](N(C(=O)[C@@H]2CCCO2)C2CCC(C)(C)CC2)CN1C(=O)[C@@H]1CN(C2CCOCC2)C[C@H]1c1ccc(Cl)cc1 [Example E5-2, (4S)-1-{[(3S,4R)-4-(4-chlorophenyl)-1-(tetrahydro-2H-pyran-4-yl)pyrrolidine-3-yl]carbonyl}-4-{(4,4-dimethylcyclohexyl)[(2S)-tetrahydrofuran-2-ylcarbonyl]amino}-N-ethyl-N-methyl-L-prolineamide]
95	CN(C)C(=O)[C@@H]1C[C@H](N(C(=O)C(C)(C)C(N)=O)C2CCC(C)(C)CC2)CN1C(=O)C1CN(C(C)(C)C)C[C@H]1c1ccc(Cl)cc1 (stereo partly drawn) [Example C12, N-{(3S,5S)-1-{[(3S,4R)-1-tert-butyl-4-(4-chlorophenyl)pyrrolidine-3-yl]carbonyl}-5-[(dimethylamino)carbonyl]pyrrolidine-3-yl}-N-(4,4-dimethylcyclohexyl)-2,2-dimethylmaloneamide]
65	CC(C)C(=O)N(C1CCC(C)(C)CC1)C1CC(C=NO)N(C(=O)C2CN(C(C)(C)C)CC2c2ccc(F)cc2F)C1 (stereo not drawn) [Example B33]
45	CC1(C)CCC(N(C(=O)C(C)(C)C)[C@H]2CCN(C(=O)[C@@H]3CN(C(N)=O)C[C@H]3c3ccc(Cl)cc3)C2)CC1 [Example E2-3]
79	CCN(C)C(=O)[C@@H]1C[C@H](N(C(=O)C(C)(C)C)C2CCC(F)(F)CC2)CN1C(=O)[C@@H]1CN(C(C)(C)C)C[C@H]1c1ccc(Cl)cc1 [Example A75]
15	CC1(C)CCC(N(C(=O)C(C)(C)/C=N/O)[C@H]2CCN(C(=O)[C@@H]3CN(C(C)(C)C)C[C@H]3c3ccc(Cl)cc3)C2)CC1 [Example C3, (3E)-N-[(3S)-1-{[(3S,4R)-1-tert-butyl-4-(4-chlorophenyl)pyrrolidine-3-yl]carbonyl}pyrrolidine-3-yl]-N-(4,4-dimethylcyclohexyl)-3-(hydroxyimino)-2,2-dimethylpropaneamide]
41	CCN(C)C(=O)[C@@H]1C[C@H](N(C(=O)C(C)(C)COC)C2CCC(F)(F)CC2)CN1C(=O)C1CN(C(C)(C)C)C[C@H]1c1ccc(Cl)cc1 (stereo partly drawn) [Example C9, N-[(3S)-1-{[(3S,4R)-1-tert-butyl-4-(4-chlorophenyl)pyrrolidine-3-yl]carbonyl}pyrrolidine-3-yl]-N-[(4,4-difluorocyclohexyl)(3-methoxy-2,2-dimethylpropanoyl)amino]-N-ethyl-N-methyl-L-prolineamide]
24	CCNC(=O)[C@@H]1C[C@H](N(C(=O)C(C)(C)C)C2CCC(F)(F)CC2)CN1C(=O)[C@@H]1CN(C(C)(C)C)C[C@H]1c1ccc(Cl)cc1 [Example A6, (4S)-1-{[(3S,4R)-1-tert-butyl-4-(4-chlorophenyl)pyrrolidine-3-yl]carbonyl}-4-[(4,4-difluorocyclohexyl)(2,2-dimethylpropanoyl)amino]-N-ethyl-L-prolineamide]
47	CN(C)C(=O)[C@@H]1C[C@H](N(C(=O)C(C)(C)C)c2ccc(F)cc2F)CN1C(=O)[C@@H]1CN(C(C)(C)C)C[C@H]1c1ccc(Cl)cc1 [Example D1, (4S)-1-{[(3S,4R)-1-tert-butyl-4-(4-chlorophenyl)pyrrolidine-3-yl]carbonyl}-4-[(2,4-difluorophenyl)(2,2-dimethylpropanoyl)amino]-N,N-dimethyl-L-prolineamide]
30	CCN(C)C(=O)[C@@H]1C[C@H](N(C(=O)[C@@H]2CCCO2)C2CCC3(CC2)CC3)CN1C(=O)[C@@H]1CN(C(C)(C)C)C[C@H]1c1ccc(Cl)cc1 [Example A90]
11	COCC(C)(C)C(=O)N(C1CCC(C)(C)CC1)[C@H]1CCN(C(=O)[C@@H]2CN(C(C)(C)C)C[C@H]2c2ccc(Cl)cc2)C1 [Example C2, N-[(3S)-1-{[(3S,4R)-1-tert-butyl-4-(4-chlorophenyl)pyrrolidine-3-yl]carbonyl}pyrrolidine-3-yl]-N-(4,4-dimethylcyclohexyl)-3-methoxy-2,2-dimethylpropaneamide]
16	CC1(C)CCC(N(C(=O)C(C)(C)C)[C@H]2C[C@@H](CO)N(C(=O)[C@@H]3CN(C(C)(C)C)C[C@H]3c3ccc(Cl)cc3)C2)CC1 [Example B4, N-[(3S,5S)-1-{[(3S,4R)-1-tert-butyl-4-(4-chlorophenyl)pyrrolidine-3-yl]carbonyl}-5-(hydroxymethyl)pyrrolidine-3-yl]-N-(4,4-dimethylcyclohexyl)-2,2-dimethylpropaneamide]
